Laboratory results published in paper PMC8286815 (Biochemical Journal, 2021).
Read-outs that look alike come from different tables or passages of the source.

Assays:
[1] = system: SARS-CoV-2 in Vero E6 cells; experiment: Viral inhibition assay (N protein immunofluorescence); assay type: cell-based; conditions: for EC50: read-out: EC50 antiviral activity against SARS-CoV-2
[2] = target: T1, SARS-CoV-2 RdRp (nsp12/nsp7/nsp8) (Severe acute respiratory syndrome coronavirus 2, UniProt P0DTD1); experiment: FRET-based strand displacement assay (RdRp activity); assay type: biochemical; conditions: 100 nM RNA substrate, 300 µM of each NTP
T1 construct: added initiator Met before nsp12 (N); made in house; host or cells: Sf9 insect cells (Spodoptera frugiperda), baculovirus

[3] = target: T1, SARS-CoV-2 RdRp (nsp12/nsp7/nsp8); experiment: Gel-based polymerisation (primer-extension) assay; assay type: biochemical; conditions: compound at 50 µM, 30-min reaction, 300 nM RdRp, native PAGE
[4] = system: influenza A viruses in A549 cells; parameters: method as in PMID 26711748; conditions: different strains, read-out: EC50 suppression of replication of influenza A viruses; cited from earlier work
influenza infection = conditions: treated mice; cited from earlier work
Vero E6 cells = experiment: Cell viability in the viral inhibition assay (DRAQ7 staining); conditions: DRAQ7 area, concentrations tested up to 300 µM
[5] = system: SARS-CoV-2 in Vero E6 cells; parameters: method as in Zeng et al. [46]; conditions: same protocol, ref Zeng et al. [46], read-out: EC50 against SARS-CoV-2; cited from earlier work
[6] = Severe acute respiratory syndrome coronavirus 2, Vero C1008, 22 h
[7] = IC50 (µM) + 0.01% Triton X-100, 150 nM RdRp, presence of 0.01% Triton X-100
[8] = IC50 (µM) No detergent, 150 nM RdRp, absence of Triton X-100
[9] = Severe acute respiratory syndrome coronavirus 2, Vero C1008, Vero E6 cells, MOI 0.5 PFU/cell, 22 h, area of viral plaques by N protein staining

Compound | EC50 [1, 6] | IC50 [2, 7] | IC50 [2, 8] | Inhibition of RNA duplex formation [3] | EC50 [1, 9] | other results
O=C1C(=O)N(Cc2ccc(Cl)c(Cl)c2)c2ccccc21 [MDK-83190] | 81 µM | – | – | – | – | –
Nc1c(C(=O)O)c2nc3c(C(=O)O)cccc3oc-2cc1=O [Cinnabarinic Acid] | – | > 100 µM | > 100 µM | – | – | –
CC1=NN(c2ccc(C(=O)O)cc2)C(=O)C1=Cc1ccc(-c2cc(C)c(C)cc2[N+](=O)[O-])o1 [C646] | – | 7.8 µM | 6.1 µM | inhibited RNA duplex formation almost completely | 19 µM | EC50 [4]: 16 µM; Toxicity in murine models of influenza infection (influenza infection): no associated toxicity; Viral replication in murine models of influenza infection (influenza infection): significant reduction in viral replication
O=C(O)c1ccc(-c2c[nH]c3ncc(-c4ccccc4)cc23)cc1C1CCCC1 [GSK-650394] | 7.6 µM | 29 µM | 31 µM | partial inhibition | – | Concentration at which cytotoxicity was seen (Vero E6 cells): 300 µM
CC(C)C(C(=O)O)N1C(=O)/C(=C/c2ccc(Br)cc2)SC1=S (stereo not shown) [BH3I-1] | – | 13 µM | 14 µM | inhibited RNA duplex formation almost completely | 77 µM | –
NC(=O)c1cc[n+](CC2=C(C(=O)O)N3C(=O)[C@@H](NC(=O)[C@@H](c4ccccc4)S(=O)(=O)[O-])[C@H]3SC2)cc1 [Cefsulodin] | 108 µM | 49 µM | 50 µM | partial inhibition | – | –
OC[C@@H](O)[C@H]1NC[C@@H](O)[C@H]1O [1,4-Dideoxy-1,4-imino-D-mannitol] | – | – | – | – | – | IC50 (µM) No detergent ([2]; 150 nM RdRp, absence of Triton X-100): no cl ear i nhi bi ti; IC50 (µM) + 0.01% Triton X-100 ([2]; 150 nM RdRp, presence of 0.01% Triton X-100): no cl ear i nhi bi ti
CCC(CC)COC(=O)[C@H](C)N[P@](=O)(OC[C@H]1O[C@@](C#N)(c2ccc3c(N)ncnn23)[C@H](O)[C@@H]1O)Oc1ccccc1 [Remdesivir] | – | – | – | – | 1.8 µM | inhibition at 0.5 µM ([1]; Severe acute respiratory syndrome coronavirus 2, Vero C1008, 0.5 µM, Vero E6 cells, read-out: Inhibition of viral infection as a single agent): < 10%
Cc1ccc(C(=O)Nc2ccc(S(=O)(=O)O)c3cc(S(=O)(=O)O)cc(S(=O)(=O)O)c23)cc1NC(=O)c1cccc(NC(=O)Nc2cccc(C(=O)Nc3cc(C(=O)Nc4ccc(S(=O)(=O)O)c5cc(S(=O)(=O)O)cc(S(=O)(=O)O)c45)ccc3C)c2)c1 [Suramin] | – | 0.78 µM | 0.43 µM | inhibited RNA duplex formation almost completely | – | EC50 [5]: 9.9 µM
